Assay results published in US20030175848A1, “Substituted dithiobisnitrobenzenes and their applications” (Institut Pasteur De Lille, priority 1998, published 2003).
Read-outs that look alike come from different tables or passages of the source.

How the values were obtained:
[1] = target: T1, human thioredoxin reductase (hTrxR) (Homo sapiens, UniProt Q16881); experiment: Kinetic parameters of substrates with native hTrxR (placenta); format: biochemical; details: substrate of native hTrxR (placenta), 25° C., buffer A pH 7.25, 0.2 mM NADPH
T1 construct: U of native hTrxR; from tissue; host or cells: human placenta
T1 sequence (Q16881 151-649 limits assumed): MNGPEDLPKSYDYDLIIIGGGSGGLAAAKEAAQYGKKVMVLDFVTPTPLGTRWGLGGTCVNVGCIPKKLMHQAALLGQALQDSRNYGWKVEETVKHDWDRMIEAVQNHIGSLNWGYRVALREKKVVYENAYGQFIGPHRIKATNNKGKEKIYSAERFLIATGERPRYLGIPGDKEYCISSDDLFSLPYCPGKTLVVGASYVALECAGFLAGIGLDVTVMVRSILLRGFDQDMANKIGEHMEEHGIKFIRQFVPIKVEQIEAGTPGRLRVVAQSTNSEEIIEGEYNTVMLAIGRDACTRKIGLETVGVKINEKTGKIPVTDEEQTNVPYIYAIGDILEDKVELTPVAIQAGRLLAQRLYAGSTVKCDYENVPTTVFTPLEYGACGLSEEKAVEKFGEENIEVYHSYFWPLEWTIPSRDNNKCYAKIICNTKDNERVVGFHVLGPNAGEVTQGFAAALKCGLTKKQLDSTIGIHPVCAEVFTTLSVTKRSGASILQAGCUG
Protocol: The human thioredoxin reductase (hTrxR) is purified from placenta as specified in J. E. Oblong et al., Biochemistry, 1993, 32, 7271-7277.
The enzyme is added to a reaction mixture comprising 100 mM potassium phosphate, 2 mM EDTA, pH 7.4 and 3 mM DTNB; after the addition of 200 μM NADPH, the increase in the absorbence is measured at 412 nm and at 25° C. Using the DTNB test, one TrxR unit is defined as the NADPH-dependent production of […] of 5-thio-2-nitrobenzoate (ε412 nm=13.6 mM^−1.cm^−1). The TrxR concentrations are determined by measuring subunits containing FAD at 450 nm (ε=11.3 mM^−1.cm^−1).

[2] = target: T2, trypanothione reductase from Trypanosoma cruzi (TcTR) (Trypanosoma cruzi, UniProt P28593); experiment: Kinetic parameters of substrates with recombinant trypanothione reductase
T2 sequence (P28593 whole entry): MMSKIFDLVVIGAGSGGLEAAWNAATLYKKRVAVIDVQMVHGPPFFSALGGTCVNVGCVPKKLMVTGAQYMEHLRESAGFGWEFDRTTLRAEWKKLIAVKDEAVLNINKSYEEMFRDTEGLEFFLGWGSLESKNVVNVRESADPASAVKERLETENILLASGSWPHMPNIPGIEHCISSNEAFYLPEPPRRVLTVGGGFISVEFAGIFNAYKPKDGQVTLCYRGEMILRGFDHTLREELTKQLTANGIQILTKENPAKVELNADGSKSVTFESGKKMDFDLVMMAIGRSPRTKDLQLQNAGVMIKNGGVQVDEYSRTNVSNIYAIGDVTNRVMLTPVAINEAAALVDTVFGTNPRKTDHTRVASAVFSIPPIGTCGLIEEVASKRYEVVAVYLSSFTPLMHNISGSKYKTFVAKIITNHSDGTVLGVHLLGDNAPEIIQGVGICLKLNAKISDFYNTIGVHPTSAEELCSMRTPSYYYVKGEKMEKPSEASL
Protocol: The TcTR concentration is determined by measuring the number of subunits containing FAD at 461 nm (ε=11.3 mM^−1×cm^−1); the enzymatic activity is tested as specified in (28). One TR unit corresponds to 1 μmol of T(S)2 reduced per minute at 25° C. in a buffer A (20 mM Hepes, pH 7.25 containing 1 mM EDTA and 0.15 M KCl).
The enzyme stock solutions used for the kinetic determinations are pure (verification in SDS-PAGE) and have a specific activity of 137 U/mg in the T(S)2 reduction test performed in the presence of 500 μM NADPH and 518 μM T(S)2 in a buffer A.
All the kinetic studies are carried out in the same buffer at 25° C., in the presence of 200 μM of NADPH.
All the tests were carried out at 25° C. in 20 mM HEPES, 1 Mm EDTA, 150 mM KCl, at pH 7.25 (buffer A) and in the presence of 0.2 mM NADPH.

[3] = target: T3, thioredoxin reductase from Plasmodium falciparum (PfTrxR) (Plasmodium falciparum, UniProt Q25861); experiment: Kinetic parameters of substrates with recombinant PfTrxR; format: biochemical; details: substrate of recombinant PfTrxR; 25° C., buffer A pH 7.25, 0.2 mM NADPH
T3 construct: made in house; host or cells: E. coli SG5 (glutathione reductase deficient)
T3 sequence (Q25861 1-541): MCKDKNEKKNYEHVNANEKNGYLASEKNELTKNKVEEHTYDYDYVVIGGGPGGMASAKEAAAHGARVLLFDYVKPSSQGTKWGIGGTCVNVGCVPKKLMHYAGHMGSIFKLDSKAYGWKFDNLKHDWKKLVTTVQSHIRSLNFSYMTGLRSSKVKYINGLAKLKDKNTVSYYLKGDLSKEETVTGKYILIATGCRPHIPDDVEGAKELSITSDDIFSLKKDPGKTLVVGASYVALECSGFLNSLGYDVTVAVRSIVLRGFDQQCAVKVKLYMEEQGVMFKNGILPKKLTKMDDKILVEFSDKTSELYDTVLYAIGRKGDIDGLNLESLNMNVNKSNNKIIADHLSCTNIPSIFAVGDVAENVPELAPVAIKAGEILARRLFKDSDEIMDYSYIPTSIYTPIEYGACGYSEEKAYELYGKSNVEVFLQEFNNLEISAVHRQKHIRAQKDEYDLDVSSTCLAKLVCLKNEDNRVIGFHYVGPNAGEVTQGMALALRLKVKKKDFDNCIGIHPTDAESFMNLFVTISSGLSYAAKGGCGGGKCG
Protocol: […] Using the DTNB test, one TrxR unit is defined as the NADPH-dependent production of […] of 5-thio-2-nitrobenzoate (ε412 nm=13.6 mM^−1.cm^−1). The TrxR concentrations are determined by measuring subunits containing FAD at 450 nm (ε=11.3 mM^−1.cm^−1).

[4] = target: T1, human thioredoxin reductase (hTrxR); details: substrate of native hTrxR (placenta), cited from earlier work; for Km: references [29], [38]
[5] = target: T3, thioredoxin reductase from Plasmodium falciparum (PfTrxR); details: cited from earlier work
[6] = target: T2, trypanothione reductase from Trypanosoma cruzi (TcTR); set-up: made in house; host or cells: Escherichia coli SG5 carrying pIBITczTR; details: cited from earlier work
[7] = target: T4, Native hTrxR (lung adenocarcinoma cells) (Homo sapiens, UniProt Q16881); details: substrate of native hTrxR (lung adenocarcinoma cells); reference [22]; cited from earlier work
T4 construct: host or cells: human lung adenocarcinoma cells (endogenous enzyme, purified)
T4 sequence (Q16881 151-649 limits assumed): T1 sequence (Q16881 151-649 limits assumed)

[8] = substrate of recombinant PfTrxR, reference [26]
[9] = substrate of recombinant TcTR, reference [1]

## CN(C)CCCNC(=O)c1cc(SSc2ccc([N+](=O)[O-])c(C(=O)NCCCN(C)C)c2)ccc1[N+](=O)[O-] [Compound 1]
[1]
  Km: 7 µM
[2]; substrate for TR
  reduction of Km compared with trypanothione disulphide: 30%

## CN1CCN(C(=O)c2cc(SSc3ccc([N+](=O)[O-])c(C(=O)N4CCN(C)CC4)c3)ccc2[N+](=O)[O-])CC1 [Compound 3]
[1]
  Kcat: 38 s⁻¹
[1]; read-out: Km
  Km: 10 µM
[3]
  Kcat: 6 s⁻¹
[2]; recombinant TcTR, 25° C., buffer A, 0.2 mM NADPH
  suitable as substrate (words spread over the Km, Kcat and Kcat/Km cells): Not

## O=C(O)c1cc(SSc2ccc([N+](=O)[O-])c(C(=O)O)c2)ccc1[N+](=O)[O-] [DTNB, 5,5′-dithiobis(2-nitrobenzoic) acid]
[4]; reference [38]
  Kcat: 67 s⁻¹
[4]
  Km: 400 µM
[5]; substrate of PfTrxR, stated in text
  Km: ~1000 µM
[5]; [8]
  Kcat: 7 s⁻¹
  Km: 1090 µM
[6]; recombinant TcTR, reference [13]
  suitable as substrate (words spread over the Km, Kcat and Kcat/Km cells): Not

## N[C@@H](CCC(=O)N[C@H]1CSSC[C@H](NC(=O)CC[C@H](N)C(=O)O)C(=O)NCC(=O)NCCCNCCCCNC(=O)CNC1=O)C(=O)O [TS2, oxidized N^1, N^8-bis(glutathionyl)-spermidine]
[6]; [9]
  Kcat: 240 s⁻¹
  Km: 45 µM

## E. coli Trx: thioredoxin (Trx) of E. coli, substrate of thioredoxin reductase
[7]
  Kcat: 5.6 s⁻¹
  Km: 34 µM
[4]
  Km: 20 µM
[5]; [8]
  Kcat: >5 s⁻¹
  Km: 66 µM
